Experimental data reported in EP0308782A2, “Antimycotic preparations” (BAYER AG, priority 1987, dated 1989).
In brackets after ≈: the same amount, converted by molar mass.

Experiments:
Torulopsis glabrata = assay: Antimycotic in-vitro activity, serial dilution test (MIC); type: cell-based; settings: meat extract-glucose broth, 28 °C to 37 °C, 24 to 96 h incubation, inoculum 5 x 10³ to 10⁴ germs/ml; for MIC: Nakaseomyces glabratus, read-out: MHK-Werte Torulopsis glabrata
Protocol: (§1) Die in-vitro-Prüfungen wurden im Reihenverdünnungstest mit Keiminokula von durchschnittlich 5 x 10³ bis 10⁴ Keimen/ml Substrat durchgeführt. Als Nährmedium dienten • a) für Dermatophyten und Schimmelpilze: Sabouraud's milieu d'epreuve • b) für Hefen: Fleischextrakt-Traubenzucker-Bouillon.
(§2) Die Bebrütungstemperatur betrug 28 °C bis 37 °C, die Bebrütungsdauer lag bei 24 bis 96 Stunden bei Hefen und 96 Stunden bei Dermatophyten und Schimmelpilzen.

Microsporum canis = assay: as above; type: cell-based; settings: Sabouraud's milieu d'epreuve, 28 °C to 37 °C, 96 h incubation, inoculum 5 x 10³ to 10⁴ germs/ml; for MIC: Microsporum canis, 96 h, read-out: MHK-Werte Microsporum canis
Protocol: as §1, §2

Aspergillus fumigatus = assay: as above; type: cell-based; settings: Sabouraud's milieu d'epreuve, 28 °C to 37 °C, 96 h incubation, inoculum 5 x 10³ to 10⁴ germs/ml; for MIC: Aspergillus fumigatus, read-out: MHK-Werte Aspergillus fumigatus
Protocol: as §1, §2

Candida albicans = assay: as above; type: cell-based; settings: meat extract-glucose broth, 28 °C to 37 °C, 24 to 96 h incubation, inoculum 5 x 10³ to 10⁴ germs/ml; for MIC: Candida albicans, read-out: MHK-Werte Candida albicans
Protocol: as §1, §2

Trichophyton mentagr. = assay: as above; type: cell-based; settings: Sabouraud's milieu d'epreuve, 28 °C to 37 °C, 96 h incubation, inoculum 5 x 10³ to 10⁴ germs/ml; for MIC: Trichophyton, read-out: MHK-Werte Trichophyton mentagr.
Protocol: as §1, §2

[1] = system: Dermatophyten, Schimmelpilze, Hefen; assay: Antimycotic in-vitro activity, serial dilution test, overall spectrum; type: cell-based; settings: statement in words on the in-vitro serial dilution test
Protocol: as §1, §2

Candida-Zellen = assay: Antimycotic in-vivo activity (oral) in mouse candidosis; design: species or system Mäuse vom Typ SPF-CF₁; settings: for Antimykotische in-vivo-Wirksamkeit (oral) bei Mäusecandidose: mice infected i.v. with 1 - 2 x 10⁶ Candida cells, 10 - 100 mg/kg oral 1 h before and 7 h after infection, survivors on day 6 p.i.; for antimykotische Wirkung: statement in words, mouse candidosis, oral 10 - 100 mg/kg
Protocol: Mäuse vom Typ SPF-CF₁ wurden intravenös mit 1 - 2 x 10⁶ logarithmisch wachsenden Candida-Zellen, die in physiologischer Kochsalzlösung suspendiert werden, infiziert. Eine Stunde vor und sieben Stunden nach der Infektion werden die Tiere mit jeweils 10 - 100 mg/kg Körpergewicht der Präparate oral behandelt.
Unbehandelte Tiere starben 3 bis 6 Tage post infektionem. Die Überlebensrate am 6.Tag post infektionem betrug bei unbehandelten Kontrolltieren etwa 5 %.

SMILES	MIC (Torulopsis glabrata)	MIC (Microsporum canis)	MIC (Aspergillus fumigatus)	MIC (Candida albicans)	MIC (Trichophyton mentagr.)	antimykotisches Wirkungsspektrum [1]	MHK-Werte Torulopsis glabrata (Torulopsis glabrata)	MHK-Werte Microsporum canis (Microsporum canis)	MHK-Werte Aspergillus fumigatus (Aspergillus fumigatus)	MHK-Werte Candida albicans (Candida albicans)	MHK-Werte Trichophyton mentagr. (Trichophyton mentagr.)	Antimykotische in-vivo-Wirksamkeit (oral) bei Mäusecandidose (Candida-Zellen)	antimykotische Wirkung (Candida-Zellen)
CC(C)(n1cccn1)C(O)(COc1ccc(Cl)cc1)Cn1cncn1 (centres unmarked) [Beispiel 28]	16 µg/mL (≈ 44.2 µM)	8 µg/mL (≈ 22.1 µM)	16 µg/mL (≈ 44.2 µM)	32 µg/mL (≈ 88.4 µM)	< 1 µg/mL								
CC(C)(n1cccn1)C(O)(CCc1ccc(Cl)cc1)Cn1cncn1 (centres unmarked) [Beispiel 1, 5-(4-Chlorphenyl)-2-methyl-2-(pyrazol-1-yl)-3-(1,2,4-triazol-methyl)-pentan-3-ol]						gutes antimykotisches Wirkungsspektrum	2 µg/ml Nährmedium	2 µg/ml Nährmedium	2 µg/ml Nährmedium	2 µg/ml Nährmedium	<1 µg/ml Nährmedium		
CC(C)(n1cccn1)C(O)(CCc1ccc(Cl)cc1Cl)Cn1cncn1 (centres unmarked) [Beispiel 23]	2 µg/mL (≈ 5.07 µM)		8 µg/mL (≈ 20.3 µM)	8 µg/mL (≈ 20.3 µM)	2 µg/mL (≈ 5.07 µM)								
CC(C)(n1cncn1)C(O)(CSc1ccc(Cl)cc1)Cn1cncn1 (centres unmarked) [Beispiel 9]	32 µg/mL (≈ 84.5 µM)		64 µg/mL (≈ 169 µM)	< 1 µg/mL	2 µg/mL (≈ 5.28 µM)	gutes antimykotisches Wirkungsspektrum							
CC(C)(n1cccn1)C(O)(/C=C/c1ccc(Cl)cc1)Cn1cncn1 (centres unmarked) [Beispiel 7]	16 µg/mL (≈ 44.7 µM)	4 µg/mL (≈ 11.2 µM)	4 µg/mL (≈ 11.2 µM)	< 1 µg/mL	< 1 µg/mL	gutes antimykotisches Wirkungsspektrum							
CC(C)(n1cccn1)C(O)(CCc1ccc(Cl)cc1F)Cn1cncn1 (centres unmarked) [Beispiel 26]	32 µg/mL (≈ 84.7 µM)	2 µg/mL (≈ 5.29 µM)	2 µg/mL (≈ 5.29 µM)	8 µg/mL (≈ 21.2 µM)	< 1 µg/mL								
Cc1cc(Cl)ccc1OCC(O)(Cn1cncn1)C(C)(C)n1cncn1 (centres unmarked) [Beispiel 12]	> 64 µg/mL		> 64 µg/mL	16 µg/mL (≈ 42.5 µM)	4 µg/mL (≈ 10.6 µM)	gutes antimykotisches Wirkungsspektrum							
Cc1cc(C)n(C(C)(C)C(O)(CCc2ccc(F)cc2)Cn2cncn2)n1 (centres unmarked) [Beispiel 25]	> 64 µg/mL		4 µg/mL (≈ 10.8 µM)	16 µg/mL (≈ 43.1 µM)	2 µg/mL (≈ 5.38 µM)								
CC(C)(n1cncn1)C(O)(Cn1cncn1)c1ccc(Cl)cc1 (centres unmarked) [(B), reference compound]	> 64 µg/mL	> 64 µg/mL	> 64 µg/mL	> 64 µg/mL	8 µg/mL (≈ 24 µM)								
CC(C)(n1cccn1)C(O)(CCc1ccc(F)cc1F)Cn1cncn1 (centres unmarked) [Beispiel 22]	8 µg/mL (≈ 22.1 µM)		16 µg/mL (≈ 44.3 µM)	2 µg/mL (≈ 5.53 µM)	2 µg/mL (≈ 5.53 µM)								
CC(C)(n1cncn1)C(O)(COc1ccc(Cl)cc1)Cn1cncn1 (centres unmarked) [Beispiel 10]	> 64 µg/mL		> 64 µg/mL	2 µg/mL (≈ 5.51 µM)	8 µg/mL (≈ 22 µM)	gutes antimykotisches Wirkungsspektrum						+++++ (sehr gute Wirkung = 90 % Überlebende am 6.Tag.p.i.)	gute antimykotische Wirkung
CC(C)(n1cccn1)C(O)(CCc1ccc(Cl)cc1)Cn1cncn1 (centres unmarked) [Beispiel 18]							2 µg/ml Nährmedium	4 µg/ml Nährmedium	2 µg/ml Nährmedium	8 µg/ml Nährmedium	<1 µg/ml Nährmedium		
CC(C)(n1cccn1)C(O)(CCc1ccc(F)cc1)Cn1cncn1 (centres unmarked) [Beispiel 24]	4 µg/mL (≈ 11.6 µM)	4 µg/mL (≈ 11.6 µM)	8 µg/mL (≈ 23.3 µM)	< 1 µg/mL	< 1 µg/mL								
CC(C)(n1cncn1)C(O)(COc1ccc(Cl)cc1Cl)Cn1cncn1 (centres unmarked) [Beispiel 11]	> 64 µg/mL		> 64 µg/mL	8 µg/mL (≈ 20.1 µM)	2 µg/mL (≈ 5.03 µM)	gutes antimykotisches Wirkungsspektrum							
CC(C)(Cn1cncn1)C(O)(CCc1ccc(-c2ccccc2)cc1)Cn1cncn1 (centres unmarked) [Beispiel 5]	32 µg/mL (≈ 76.8 µM)		8 µg/mL (≈ 19.2 µM)	8 µg/mL (≈ 19.2 µM)	2 µg/mL (≈ 4.8 µM)	gutes antimykotisches Wirkungsspektrum						+++ (Wirkung = 60 % Überlebende am 6.Tag.p.i.)	gute antimykotische Wirkung
OC(Cn1cncn1)(Cn1cncn1)c1ccccc1 [(A), reference compound]	> 64 µg/mL		> 64 µg/mL	64 µg/mL (≈ 237 µM)	64 µg/mL (≈ 237 µM)								
CC(C)(n1cccn1)C(O)(CCc1ccc(Cl)cc1)Cn1cncn1 (centres unmarked) [Beispiel 17]		2 µg/mL (≈ 5.56 µM)	2 µg/mL (≈ 5.56 µM)		< 1 µg/mL		32 µg/ml Nährmedium			16 µg/ml Nährmedium			
CC(C)(n1cccn1)C(O)(CCc1ccc(OC(F)(F)F)cc1)Cn1cncn1 (centres unmarked) [Beispiel 20]	4 µg/mL (≈ 9.77 µM)	2 µg/mL (≈ 4.89 µM)	< 1 µg/mL	4 µg/mL (≈ 9.77 µM)	< 1 µg/mL								
Cc1cc(C)n(C(C)(C)C(O)(CCc2ccc(Cl)cc2)Cn2cncn2)n1 (centres unmarked) [Beispiel 21]	16 µg/mL (≈ 41.2 µM)	< 1 µg/mL	2 µg/mL (≈ 5.16 µM)	8 µg/mL (≈ 20.6 µM)	< 1 µg/mL								
CC(C)(Cn1cncn1)C(O)(CCc1ccc2ccccc2c1)Cn1cncn1 (centres unmarked) [Beispiel 2, 4,4-Dimethyl-1-(2-naphthyl)-5-(1,2,4-triazol-1-yl)-3-(1,2,4-triazol-1-yl-methyl)-3-pentanol]	> 64 µg/mL		> 64 µg/mL	32 µg/mL (≈ 81.9 µM)	4 µg/mL (≈ 10.2 µM)	gutes antimykotisches Wirkungsspektrum							
CC(C)(n1cccn1)C(O)(CCc1ccc(F)cc1Cl)Cn1cncn1 (centres unmarked) [Beispiel 27]	16 µg/mL (≈ 42.3 µM)		32 µg/mL (≈ 84.7 µM)	8 µg/mL (≈ 21.2 µM)	4 µg/mL (≈ 10.6 µM)								
CC(C)(n1cncn1)C(O)(CCc1ccc(Cl)cc1)Cn1cncn1 (centres unmarked) [Beispiel 29]	32 µg/mL (≈ 88.7 µM)	4 µg/mL (≈ 11.1 µM)	16 µg/mL (≈ 44.3 µM)	< 1 µg/mL	< 1 µg/mL								
CC(C)(n1cncn1)C(O)(C=Cc1ccc(Cl)cc1)Cn1cncn1 (centres unmarked) [Beispiel 8]												++++ (gute Wirkung = 80 % Überlebende am 6.Tag.p.i.)	gute antimykotische Wirkung
Cc1ccc(OCC(O)(Cn2cncn2)C(C)(C)n2cncn2)c(Cl)c1 (centres unmarked) [Beispiel 13]	> 64 µg/mL		> 64 µg/mL	32 µg/mL (≈ 84.9 µM)	2 µg/mL (≈ 5.31 µM)	gutes antimykotisches Wirkungsspektrum							
CC(C)(n1cccn1)C(O)(CCc1ccccc1F)Cn1cncn1 (centres unmarked) [Beispiel 19]	8 µg/mL (≈ 23.3 µM)		16 µg/mL (≈ 46.6 µM)	16 µg/mL (≈ 46.6 µM)	2 µg/mL (≈ 5.82 µM)								
